Assay results reported in US7972610B2, “Antimicrobial compounds” (University of Strathclyde, priority 2005, dated 2011).

System: A. castellanii
Test: alamarBlue assay of susceptibility of A. castellanii to glyphosate
Type: cell-based
Conditions: Acanthamoeba castellanii; A. castellanii (Neff strain) trophozoites, 96 hr incubation, glyphosate 9 mM to 0.27 μM, FIG. 1; read-out: IC50 (inhibition of A. castellanii, percent alamarBlue reduction relative to untreated control cultures)
Description: Acanthamoeba polyphaga (Strain No. 1501/18) were obtained from CCAP (Cumbria, UK). Acanthamoeba castellanii (Neff strain) was kindly obtained from Keith Vickerman (Glasgow, UK). A. castellanii and A. polyphaga trophozoites were grown in (a) Rich media containing […] (Fluka, UK) and 0.9% maltose (Sigma, UK) and supplemented with 1% Penicillin, Streptomycin and Amphotericin B (All Sigma, UK) or (b) modified 11 containing 20% Rich media. Acanthamoeba spp. were incubated at room temperature in 75 cm^2 tissue culture flasks until 90-95% confluence, then harvested or sub-cultured using Accutase (Sigma, UK).
The susceptibility of the A. castellanii to glyphosate as assessed by the almarBlue assay. The susceptibility of A. castellanii to glyphosate was determined by a modification of the method described by McBride et al., (2005). A. castellanii cells were grown in 75 cm^2 flasks until 90-95% confluence and harvested using Accutase (Sigma, UK). […] AlamarBlue reduction was assessed as previously described. The percent inhibition of almarBlue reduction was calculated using the formula: (εox)λAλ1−(εox)λ1Aλ. of treated Acanthamoeba/(εox)λA°λ1−(εox)λ1A°λ of untreated Acanthamoeba×100
[where: °λ1=absorbance of untreated control with alamarBlue at 570 nm); °λ2=absorbance of untreated control with alamarBlue at 600 nm)]. […]

Compound: O=C(O)CNCP(=O)(O)O [Glyphosate, N-(phosphonomethyl)glycine]
- IC50: 2.19 to 4.39 µM
